Reference: patent publication US20050124497A1, “Delta1-pyrrolines and their use as pest control agents” (priority 2002, published 2005)

System: larvae of the mustard beetle (Phaedon cochleariae)
Assay: Phaedon larvae test
Assay type: in vivo
Conditions: 100 ppm active compound, cabbage leaves dipped, kill after 7 d
Procedure: Phaedon Larvae Test [table] To produce a suitable preparation of active compound, 1 part by weight of active compound is mixed with the stated amounts of solvent and emulsifier, and the concentrate is diluted with emulsifier-containing water to the desired concentration. Cabbage leaves (Brassica oleracea) are treated by being dipped into the preparation of active compound of the desired concentration and are populated with larvae of the mustard beetle (Phaedon cochleariae) while the leaves are still moist.

Structure (SMILES) | Efficacy in % after 7 d [%]
Fc1cccc(F)c1C1=NC(c2ccc(-c3nc4cc(C(F)(F)F)c(Cl)cc4o3)cc2)CC1 (stereo not shown) [drawing 41] | 100
Fc1cccc(F)c1C1=NC(c2ccc(-c3nc4cc(OC(F)(F)F)ccc4o3)cc2)CC1 (stereo not shown) [drawing 42] | 100
Fc1cc(-c2nc3cc(-c4ccccc4)ccc3o2)ccc1C1CCC(c2c(F)cccc2F)=N1 (stereo not shown) [drawing 45] | 100
Fc1cccc(F)c1C1=NC(c2ccc(-c3nc4cc(-c5ccccc5)ccc4o3)cc2)CC1 (stereo not shown) [drawing 43] | 100
Fc1cc(-c2nc3cc(OC(F)(F)F)ccc3o2)ccc1C1CCC(c2c(F)cccc2F)=N1 (stereo not shown) [drawing 44] | 100

Same assay, conditions: 500 ppm active compound, cabbage leaves dipped, kill after 7 d

Structure (SMILES) | Efficacy in % after 7 d [%]
Fc1cccc(F)c1C1=NC(c2ccc(-c3nc4cc(SC(F)(F)F)ccc4o3)cc2)CC1 (stereo not shown) [drawing 40] | 100
CC(C)(C)c1ccc2oc(-c3ccc(C4CCC(c5c(F)cccc5F)=N4)cc3)nc2c1 (stereo not shown) [drawing 39] | 100

System: greenhouse red spider mite (Tetranychus urticae)
Assay: Tetranychus test (OP-resistant/dip treatment)
Assay type: in vivo
Conditions: 168 h, 100 ppm active compound, bean plants dipped, all stages, after 7 d, read-out: Efficacy in % after 7 d
Procedure: Tetranychus Test (OP-Resistant/Dip Treatment)
(§1) To produce a suitable preparation of active compound, 1 part by weight of active compound is mixed with the stated amounts of solvent and emulsifier, and the concentrate is diluted with emulsifier-containing water to the desired concentration.
Bean plants (Phaseolus vulgaris) which are heavily infested by all stages of the greenhouse red spider mite (Tetranychus urticae) are treated by being dipped into a preparation of active compound of the desired, concentration.
After the desired period of time, the effect in % is determined. 100% means that all spider mites have been killed; 0% means that none of the spider mites have been killed.

Structure (SMILES) | pest or weed control at 100 ppm [%]
Fc1cccc(F)c1C1=NC(c2ccc(-c3nc4cc(C(F)(F)F)cc(Cl)c4o3)cc2)CC1 (stereo not shown) | 95
CN(C)S(=O)(=O)c1cc2oc(-c3ccc(C4CCC(c5c(F)cccc5F)=N4)cc3)nc2cc1Cl (stereo not shown) [drawing 64] | 90
Fc1cc(-c2nc3ccccc3o2)ccc1C1CCC(c2c(F)cccc2F)=N1 (stereo not shown) | 95
Fc1cc(-c2nc3cc(Cl)ccc3o2)ccc1C1CCC(c2c(F)cccc2F)=N1 (stereo not shown) [drawing 67] | 95
Fc1cc(-c2nc3cc(-c4ccccc4)ccc3o2)ccc1C1CCC(c2c(F)cccc2F)=N1 (stereo not shown) [drawing 68] | 99
Fc1cccc(F)c1C1=NC(c2ccc(-c3nc4cc(C(F)(F)F)c(Cl)cc4o3)cc2)CC1 (stereo not shown) [drawing 63] | 98
Fc1cccc(F)c1C1=NC(c2ccc(-c3nc4ccccc4s3)cc2)CC1 (stereo not shown) [drawing 65] | 99
Fc1cccc(F)c1C1=NC(c2ccc(-c3nc4cc(C(F)(F)F)cc(C(F)(F)F)c4o3)cc2)CC1 (stereo not shown) | 100
Fc1cccc(F)c1C1=NC(c2ccc(-c3nc4cc(C(F)(F)F)ccc4s3)cc2)CC1 (stereo not shown) [drawing 69] | 90

System: caterpillars of the armyworm (Spodoptera frugiperda)
Assay: Spodoptera frugiperda test
Assay type: in vivo
Conditions: 168 h, 100 ppm active compound, cabbage leaves dipped, kill after 7 d, read-out: Efficacy in % after 7 d
Procedure: Spodoptera Frugiperda Test
as §1
Cabbage leaves (Brassica oleracea) are treated by being dipped into the preparation of active compound of the desired concentration and are populated with caterpillars of the armyworm (Spodoptera frugiperda) while the leaves are still moist.
(§2) After the desired period of time, the kill in % is determined. 100% means that all caterpillars have been killed; 0% means that none of the caterpillars have been killed.

Structure (SMILES) | pest or weed control at 100 ppm [%]
CN(C)S(=O)(=O)c1cc2oc(-c3ccc(C4CCC(c5c(F)cccc5F)=N4)cc3)nc2cc1Cl (stereo not shown) [drawing 58] | 100
Fc1cccc(F)c1C1=NC(c2ccc(-c3nc4cc(C(F)(F)F)ccc4s3)cc2)CC1 (stereo not shown) [drawing 60] | 100
Cc1ccccc1C1=NC(c2ccc(-c3nc4ccccc4o3)cc2)CC1 (stereo not shown) | 100
Fc1cccc(F)c1C1=NC(c2ccc(-c3nc4cc(Cl)ccc4o3)cc2)CC1 (stereo not shown) | 100
Fc1cc(-c2nc3cc(Cl)ccc3o2)ccc1C1CCC(c2c(F)cccc2F)=N1 (stereo not shown) [drawing 59] | 100
Fc1cccc(F)c1C1=NC(c2ccc(-c3nc4cc(Cl)cc(Cl)c4o3)cc2)CC1 (stereo not shown) | 100

Same assay, conditions: 168 h, 500 ppm active compound, cabbage leaves dipped, kill after 7 d, read-out: Efficacy in % after 7 d

Structure (SMILES) | pest or weed control at 500 ppm [%]
CC(C)(C)c1ccc2oc(-c3ccc(C4CCC(c5c(F)cccc5F)=N4)cc3)nc2c1 (stereo not shown) [drawing 50] | 100
Fc1ccc2nc(-c3ccc(C4CCC(c5c(F)cccc5F)=N4)cc3)oc2c1 (stereo not shown) [drawing 54] | 100
Fc1cccc(F)c1C1=NC(c2ccc(-c3nc4ncccc4o3)cc2)CC1 (stereo not shown) [drawing 49] | 100
CC(C)(C)c1ccc(O)c(NC(=O)c2ccc(C3CCC(c4c(F)cccc4F)=N3)cc2)c1 (stereo not shown) [drawing 55] | 100
Fc1cccc(F)c1C1=NC(c2ccc(-c3nc4cc(SC(F)(F)F)ccc4o3)cc2)CC1 (stereo not shown) [drawing 52] | 100

Same assay, conditions: in Brassica oleracea, 168 h, read-out: Efficacy in % after 7 d

Structure (SMILES) | pest or weed control at 500 ppm [%]
O=[N+]([O-])c1cc2oc(-c3ccc(C4CCC(c5c(F)cccc5F)=N4)cc3)nc2cc1Cl (stereo not shown) | 100
Fc1cccc(F)c1C1=NC(c2ccc(-c3nc4ccccc4o3)cc2)CC1 (stereo not shown) [drawing 48] | 100

System: not listed separately
Assay: log P by HPLC (reversed-phase C18), acidic range pH 2.3
Assay type: physicochemical
Conditions: reversed-phase C18 HPLC column; pH 2.3, 0.1% aqueous phosphoric acid/acetonitrile, 43° C.
Procedure: The log P values given in the Tables and Preparation Examples above are determined in accordance with EEC Directive 79/831 Annex V.A8 by HPLC (High Performance Liquid Chromatography) using a reversed-phase column (C 18). Temperature: 43° C.
The determination in the acidic range is carried out at pH 2.3 using the mobile phases 0.1% aqueous phosphoric acid and acetonitrile; linear gradient from 10% acetonitrile to 90% acetonitrile. In the Tables, the values are marked a).
Calibration is carried out using unbranched alkan-2-ones (of 3 to 16 carbon atoms) with known log P values (determination of the log P values by retention times using linear interpolation between two successive alkanones).

Structure (SMILES) | chromatographic logP
Fc1cccc(F)c1C1=NC(c2ccc(-c3nc4ccccc4o3)cc2)CC1 (stereo not shown) [Example 3, 2-{4-[5-(2,6-difluorophenyl)-3,4-dihydro-2H-pyrrol-2-yl]phenyl}-1,3-benzoxazole] | 3.22
CC(C)(C)c1ccc(O)c(NC(=O)c2ccc(C3CCC(c4c(F)cccc4F)=N3)cc2)c1 (stereo not shown) [II-1, N-(5-tert-btyl-2-hydroxyphenyl)-4-[5-(2,6-difluorohenyl)-3,4-dihydro-2H-pyrrol-2-yl]benzamide] | 3.22
O=C(Nc1ncccc1O)c1ccc(C2CCC(c3c(F)cccc3F)=N2)cc1 (stereo not shown) [II-4, 4-[5-(2,6-difluorophenyl)-3,4-dihydro-2H-pyrrol-2-yl]-N-(3-hydroxy-2-pyridinyl)benzamide] | 1.16
CC(C)(C)c1ccc2oc(-c3ccc(C4CCC(c5c(F)cccc5F)=N4)cc3)nc2c1 (stereo not shown) [Example 1, 5-tert-butyl-2-{4-[5-(2,6-difluorophenyl)-3,4-dihydro-2H-pyrrol-2-yl]phenyl}-1,3-benzoxazole] | 5.11
Fc1ccc2nc(-c3ccc(C4CCC(c5c(F)cccc5F)=N4)cc3)oc2c1 (stereo not shown) [Example 5, 2-{4-[5-(2,6-difluorophenyl)-3,4-dihydro-2H-pyrrol-2-yl]phenyl}-6-fluoro-1,3-benzoxazole] | 3.53
Fc1cccc(F)c1C1=NC(c2ccc(-c3nc4cc(SC(F)(F)F)ccc4o3)cc2)CC1 (stereo not shown) [Example 2] | 4.98
Fc1cccc(F)c1C1=NC(c2ccc(-c3nc4ncccc4o3)cc2)CC1 (stereo not shown) [Example 4, 2-{4-[5-(2,6-difluorophenyl)-3,4-dihydro-2H-pyrrol-2-yl]-phenyl}[1,3]oxazole[4,5-b]pyridine] | 2.06

System: caterpillars of the armyworm (Spodoptera exigua)
Assay: Spodoptera exigua test
Assay type: in vivo
Conditions: 100 ppm active compound, cabbage leaves dipped, kill after 7 d
Procedure: as §1
Cabbage leaves (Brassica oleracea) are treated by being dipped into the preparation of active compound of the desired concentration and are populated with caterpillars of the armyworm (Spodoptera exigua) while the leaves are still moist.
as §2

Structure (SMILES) | Efficacy in % after 7 d [%]
Fc1cc(-c2nc3cc(-c4ccccc4)ccc3o2)ccc1C1CCC(c2c(F)cccc2F)=N1 (stereo not shown) [drawing 47] | 100

System: Meloidogyne incognita egg/larvae suspension
Assay: Meloidogyne test
Assay type: in vivo
Conditions: 20 ppm active compound, lettuce in sand, nematicidal action by gall formation
Procedure: To produce a suitable preparation of active compound, 1 part by weight of active compound is mixed with the stated amounts of solvent and emulsifier, and the concentrate is diluted with water to the desired concentration.
Containers are filled with sand, solution of active compound, Meloidogyne incognita egg/larvae suspension and lettuce seeds. The lettuce seeds germinate and the plants develop. On the roots, galls are formed.
After the desired period of time, the nematicidal action is determined in % by gall formation. 100% means that no galls were found; 0% means that the number of galls on the treated plants corresponds to that of the untreated control.

Structure (SMILES) | Efficacy in % after 7 d [%]
Fc1cccc(F)c1C1=NC(c2ccc(-c3nc4cc(Br)ccc4o3)cc2)CC1 (stereo not shown) [drawing 38] | 80
Cc1cc2oc(-c3ccc(C4CCC(c5c(F)cccc5F)=N4)cc3)nc2c(C)c1Cl (stereo not shown) | 98
O=C(Nc1ncccc1O)c1ccc(C2CCC(c3c(F)cccc3F)=N2)cc1 (stereo not shown) [drawing 34] | 95
Fc1cccc(F)c1C1=NC(c2ccc(-c3nc4ccccc4s3)cc2)CC1 (stereo not shown) [drawing 35] | 80
CNS(=O)(=O)c1cc2oc(-c3ccc(C4CCC(c5c(F)cccc5F)=N4)cc3)nc2cc1Cl (stereo not shown) | 80

System: Heliothis armigera caterpillars
Assay: Heliothis armigera test
Assay type: in vivo
Conditions: 100 ppm active compound, soya bean shoots dipped, kill after 7 d
Procedure: Solvent: 7 parts by weight of dimethylformamide
Emulsifier: 2 parts by weight of alkylaryl polyglycol ether
as §1
Soya bean shoots (Glycine max) are treated by being dipped into the preparation of active compound of the desired concentration and are populated with Heliothis armigera caterpillars while the leaves are still moist.
as §2

Structure (SMILES) | Efficacy in % after 7 d [%]
Fc1cccc(F)c1C1=NC(c2ccc(-c3nc4cc(OC(F)(F)F)ccc4o3)cc2)CC1 (stereo not shown) [drawing 28] | 100
Fc1cccc(F)c1C1=NC(c2ccc(-c3nc4cc(C(F)(F)F)c(Cl)cc4o3)cc2)CC1 (stereo not shown) [drawing 27] | 100
Fc1cccc(F)c1C1=NC(c2ccc(-c3nc4cc(-c5ccccc5)ccc4o3)cc2)CC1 (stereo not shown) [drawing 29] | 100
Fc1cc(-c2nc3cc(Cl)ccc3o2)ccc1C1CCC(c2c(F)cccc2F)=N1 (stereo not shown) [drawing 31] | 100
Fc1cc(-c2nc3cc(OC(F)(F)F)ccc3o2)ccc1C1CCC(c2c(F)cccc2F)=N1 (stereo not shown) [drawing 30] | 100
Fc1cccc(F)c1C1=NC(c2ccc(-c3nc4cc(Br)ccc4o3)cc2)CC1 (stereo not shown) [drawing 33] | 100
Fc1cccc(F)c1C1=NC(c2ccc(-c3nc4cc(C(F)(F)F)ccc4s3)cc2)CC1 (stereo not shown) [drawing 32] | 100
